Tests used:
[1] = Metabolic clearance in rat hepatocyte assessed as clearance measured per 10^6 cells; assay type: ADME, cell-based; conditions: hepatocytes, read-out: CLH
Hepatocyte = experiment: Metabolic clearance in human hepatocyte assessed as clearance; assay type: ADME, cell-based; conditions: hepatocytes

Structure (SMILES): O=C(c1cnn(Cc2ccccc2)c1)N1CCOc2ccccc2C1
- hepatocyte CLint [1]: 87 µL/min/1e6 cells
- CLH (Hepatocyte): 42 µL/min/mg
